Earlier results, collected in patent US20200289412A1, “BIOENHANCED SPIRULINA LOZENGE FORMULATION” (priority 2019, published 2020).

What was measured:
tumor cell = settings: time-dependent; not directly killing cancer cells
[1] = tested on: human immunodeficiency virus-1 virus (HIV-1)

Substance	tumor cell growth (tumor cell)	in vitro replication (mumps virus)	in vitro replication (Herpes simplex type I)	in vitro replication (human cytomegalovirus)	in vitro replication [1]	in vitro replication (measles virus)	in vitro replication (influenza A virus)
Spirulina polysaccharide [PSP]	inhibiting tumor cell growth	–	–	–	–	–	–
calcium spirulan [Ca-Sp]	–	inhibits the in vitro replication	inhibits the in vitro replication	inhibits the in vitro replication	inhibits the in vitro replication	inhibits the in vitro replication	inhibits the in vitro replication
